Laboratory results published in patent publication US7902373B2 (Pfizer Inc, priority 2006, dated 2011).
pIC50: −log10 of the molar value.

The compounds below were run against human recombinant H-PGDS (Homo sapiens, UniProt O60760) (assay: Fluorescence intensity h-PGDS TBA enzyme assay). Details: Examples up to 622 (and 3a, 3b).
Assay type: biochemical

Chain of human recombinant H-PGDS (O60760 whole entry): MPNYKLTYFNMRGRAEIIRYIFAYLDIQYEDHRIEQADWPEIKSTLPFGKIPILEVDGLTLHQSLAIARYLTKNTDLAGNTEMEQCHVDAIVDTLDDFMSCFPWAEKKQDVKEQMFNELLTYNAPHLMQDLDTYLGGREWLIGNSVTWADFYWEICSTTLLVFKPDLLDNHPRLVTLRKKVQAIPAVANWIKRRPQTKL

SMILES | pIC50
CCOC(=O)N1CCC(NC(=O)c2ccc(-c3cccc(F)c3)nc2)CC1 [Example 32, Ethyl 4-({[6-(3-fluorophenyl)pyridin-3-yl]carbonyl}amino)piperidine-1-carboxylate] | 9.41
CCOC(=O)N1CCC(NC(=O)c2ccc(-c3cc(F)cc(F)c3)nc2)CC1 [Example 33, Ethyl 4-({[6-(3,5-difluorophenyl)pyridin-3-yl]carbonyl}amino)piperidine-1-carboxylate] | 8.62
O=C(NC1CCN(CC(F)(F)F)CC1)c1ccc(-c2cc(F)cc(F)c2)nc1 [Example 34, 6-(3,5-Difluorophenyl)-N-[1-(2,2,2-trifluoroethyl)piperidin-4-yl]nicotinamide] | 8.73
COc1cnc(-c2ccccn2)nc1N1CCC(NC(=O)c2ccc(-c3cccc(F)c3)nc2)CC1 [Example 35, 6-(3-Fluorophenyl)-N-(1-(5-methoxy-2-(pyridin-2-yl)pyrimidin-4-yl)piperidin-4-yl)nicotinamide] | 8.53
O=C(NC1CCNCC1)c1ccc(-c2cccc(F)c2)nc1 [Example 36, 6-(3-Fluorophenyl)-N-(piperidin-4-yl)nicotinamide] | 8.15
O=C(NC1CCN(c2cc(Nc3cc[nH]n3)ncn2)CC1)c1ccc(-c2cccc(F)c2)nc1 [Example 37, N-(1-(6-(1H-Pyrazol-3-ylamino)pyrimidin-4-yl)piperidin-4-yl)-6-(3-fluorophenyl)nicotinamide] | 9.32
O=C(NC1CCN(c2ncnc3ccc(Cl)cc23)CC1)c1ccc(-c2cccc(F)c2)nc1 [Example 38, N-(1-(6-Chloroquinazolin-4-yl)piperidin-4-yl)-6-(3-fluorophenyl)nicotinamide] | 8.98
O=C(NC1CCN(c2nnnn2-c2ccccc2)CC1)c1ccc(-c2cccc(F)c2)nc1 [Example 39, 6-(3-Fluorophenyl)-N-(1-(1-phenyl-1H-tetrazol-5-yl)piperidin-4-yl)nicotinamide] | 9.03
Cc1ccc(C#N)c(N2CCC(NC(=O)c3ccc(-c4cccc(F)c4)nc3)CC2)n1 [Example 41, N-[1-(3-Cyano-6-methylpyridin-2-yl)piperidin-4-yl]-6-(3-fluorophenyl)nicotinamide] | 9.05
O=C(NC1CCN(c2nccnc2-c2ccccc2)CC1)c1ccc(-c2cccc(F)c2)nc1 [Example 42, 6-(3-Fluorophenyl)-N-[1-(3-phenylpyrazin-2-yl)piperidin-4-yl]nicotinamide] | 8.07
O=C(NC1CCN(c2nc3ccccc3nc2NCCO)CC1)c1ccc(-c2cccc(F)c2)nc1 [Example 43, 6-(3-Fluorophenyl)-N-(1-{3-[(2-hydroxyethyl)amino]quinoxalin-2-yl}piperidin-4-yl)nicotinamide] | 8.66
COc1ccc(-c2cnc(C)nc2N2CCC(NC(=O)c3ccc(-c4cccc(F)c4)nc3)CC2)cc1OC [Example 44, N-{1-[5-(3,4-Dimethoxyphenyl)-2-methylpyrimidin-4-yl]piperidin-4-yl}-6-(3-fluorophenyl)nicotinamide] | 8.87
Cc1cc(N2CCC(NC(=O)c3ccc(-c4cccc(F)c4)nc3)CC2)nc(N)n1 [Example 45, N-[1-(2-Amino-6-methylpyrimidin-4-yl)piperidin-4-yl]-6-(3-fluorophenyl)nicotinamide] | 9.11
Cc1nc(C(F)(F)F)nc(N2CCC(NC(=O)c3ccc(-c4cccc(F)c4)nc3)CC2)c1C [Example 46, N-{1-[5,6-Dimethyl-2-(trifluoromethyl)pyrimidin-4-yl]piperidin-4-yl}-6-(3-fluorophenyl)nicotinamide] | 8.76
Cc1cc(C2CCCN2c2ccnc(N3CCC(NC(=O)c4ccc(-c5cccc(F)c5)nc4)CC3)n2)no1 (stereo not shown) [Example 47, 6-(3-Fluorophenyl)-N-(1-{4-[2-(5-methylisoxazol-3-yl)pyrrolidin-1-yl]pyrimidin-2-yl}piperidin-4-yl)nicotinamide] | 8.53
Cc1nc(-c2ccccn2)nc(N2CCC(NC(=O)c3ccc(-c4cccc(F)c4)nc3)CC2)c1Cl [Example 48, N-[1-(5-Chloro-6-methyl-2-pyridin-2-ylpyrimidin-4-yl)piperidin-4-yl]-6-(3-fluorophenyl)nicotinamide] | 8.54
COc1cc(N2CCC(NC(=O)c3ccc(-c4cccc(F)c4)nc3)CC2)ncn1 [Example 49, 6-(3-Fluorophenyl)-N-[1-(6-methoxypyrimidin-4-yl)piperidin-4-yl]nicotinamide] | 9.21
O=C(NC1CCN(c2ccc(C(=O)N3CCOCC3)cn2)CC1)c1ccc(-c2cccc(F)c2)nc1 [Example 50, 6-(3-Fluorophenyl)-N-{1-[5-(morpholin-4-ylcarbonyl)pyridin-2-yl]piperidin-4-yl}nicotinamide] | 9.17
Cn1nnnc1N1CCC(NC(=O)c2ccc(-c3cccc(F)c3)nc2)CC1 [Example 51, 6-(3-Fluoro-phenyl)-N-[1-(1-methyl-1H-tetrazol-5-yl)-piperidin-4-yl]-nicotinamide] | 9.58
COc1ccc2c(N3CCC(NC(=O)c4ccc(-c5cccc(F)c5)nc4)CC3)ncnc2c1 [Example 52, 6-(3-Fluorophenyl)-N-[1-(7-methoxyquinazolin-4-yl)piperidin-4-yl]nicotinamide] | 9.48
O=C(NC1CCN(c2cc(OCc3ccccn3)ncn2)CC1)c1ccc(-c2cccc(F)c2)nc1 [Example 53, 6-(3-Fluorophenyl)-N-{1-[6-(pyridin-2-ylmethoxy)pyrimidin-4-yl]piperidin-4-yl}nicotinamide] | 8.99
Cn1ccnc1COc1cc(N2CCC(NC(=O)c3ccc(-c4cccc(F)c4)nc3)CC2)ncn1 [Example 54, 6-(3-Fluorophenyl)-N-(1-{6-[(1-methyl-1H-imidazol-2-yl)methoxy]pyrimidin-4-yl}piperidin-4-yl)nicotinamide] | 8.88
COc1ccc(-c2cc(N3CCC(NC(=O)c4ccc(-c5cccc(F)c5)nc4)CC3)ncn2)cc1OC [Example 55, N-{1-[6-(3,4-Dimethoxyphenyl)pyrimidin-4-yl]piperidin-4-yl}-6-(3-fluorophenyl)nicotinamide] | 8.78
Cn1nccc1-c1nc(N2CCC(NC(=O)c3ccc(-c4cccc(F)c4)nc3)CC2)nc2ccccc12 [Example 56, 6-(3-Fluorophenyl)-N-{1-[4-(1-methyl-1H-pyrazol-5-yl)quinazolin-2-yl]piperidin-4-yl}nicotinamide] | 7.89
CCn1cnc2c(N3CCC(NC(=O)c4ccc(-c5cccc(F)c5)nc4)CC3)ncnc21 [Example 57, N-[1-(9-Ethyl-9H-purin-6-yl)piperidin-4-yl]-6-(3-fluorophenyl)nicotinamide] | 9.55
O=C(NC1CCN(c2ccnc(N3CCc4ccccc4C3)n2)CC1)c1ccc(-c2cccc(F)c2)nc1 [Example 58, N-{1-[2-(3,4-Dihydroisoquinolin-2(1H)-yl)pyrimidin-4-yl]piperidin-4-yl}-6-(3-fluorophenyl)nicotinamide] | 8.08
O=C(NC1CCN(c2nccc(NCc3ccccn3)n2)CC1)c1ccc(-c2cccc(F)c2)nc1 [Example 59, 6-(3-Fluorophenyl)-N-(1-{4-[(pyridin-2-ylmethyl)amino]pyrimidin-2-yl}piperidin-4-yl)nicotinamide] | 9.09
O=C(NC1CCN(c2cnccn2)CC1)c1ccc(-c2cccc(F)c2)nc1 [Example 60, 6-(3-Fluorophenyl)-N-(1-pyrazin-2-ylpiperidin-4-yl)nicotinamide] | 9.23
